Data from patent US20120309670A1, “7-(ALK-1'-ENYL)-2H-BENZO[B][1,4]DIOXEPIN-3(4H)-ONES AND THEIR USE IN FRAGRANCE APPLICATIONS” (Givaudan SA, priority 2010, published 2012).

Assay: Odour Detection Threshold (ODT) / odour threshold
Settings: for ODT: Odour Detection Threshold, table of compounds of Formula I

With CC(C)(C)C/C=C/c1ccc2c(c1)OCC(=O)CO2 [Example 6, (1′E)-7-(4′,4′-Dimethylpent-1′-enyl)-2H-benzo[b][1,4]dioxepin-3(4H)-one] the Odour threshold was 0.042 ng/L air and the ODT was 0.042 ng/L.

In the case of CC(C)C/C=C/c1ccc2c(c1)OCC(=O)CO2 [Example 2, (1′E)-7-(4′-Methylpent-1′-enyl)-2H-benzo[b][1,4]dioxepin-3(4H)-one], the Odour threshold is reported as 0.00025 ng/L air and the ODT is reported as 0.00025 ng/L.

Work on CC(C)/C=C/c1ccc2c(c1)OCC(=O)CO2 [Example 3, (1′E)-7-(3′-Methylbut-1′-enyl)-2H-benzo[b][1,4]dioxepin-3(4H)-one] yielded an Odour threshold of 0.015 ng/L air and an ODT of 0.015 ng/L.

With CCC(C)/C=C/c1ccc2c(c1)OCC(=O)CO2 (stereo not shown) [Example 8, (1′E)-7-(3′-Methylpent-1′-enyl)-2H-benzo[b][1,4]-dioxepin-3(4H)-one] the Odour threshold was 0.021 ng/L air and the ODT was 0.021 ng/L.

With CC(C)=Cc1ccc2c(c1)OCC(=O)CO2 [Example 7, (1′E)-7-(2′-Methylprop-1′-enyl)-2H-benzo[b][1,4]dioxepin-3(4H)-one] the Odour threshold was 0.42 ng/L air and the ODT was 0.42 ng/L.

Work on CC/C=C/c1ccc2c(c1)OCC(=O)CO2 [Example 1, (1′E)-7-(But-1′-enyl)-2H-benzo[b][1,4]dioxepin-3(4H)-one] yielded an Odour threshold of 0.00157 ng/L air and an ODT of 0.00157 ng/L.

With CCC/C=C/c1ccc2c(c1)OCC(=O)CO2 [Example 5, (1′E)-7-(Pent-1′-enyl)-2H-benzo[b][1,4]dioxepin-3(4H)-one] the Odour threshold was 0.00314 ng/L air and the ODT was 0.00314 ng/L.

C/C=C/C=C/c1ccc2c(c1)OCC(=O)CO2 [Example 4, (1′E,3′E)-7-(Penta-1′,3′-dienyl)-2H-benzo[b][1,4]dioxepin-3(4H)-one] gave an Odour threshold of 0.000141 ng/L air and an ODT of 0.000141 ng/L.
